Measured values taken from ChEMBL document CHEMBL5120764, “Isarubrolone C Promotes Autophagic Degradation of Virus Proteins via Activating ATG10S in HepG2 Cells” (J Nat Prod, 2022).
The source made the active and inactive calls.

What was measured:
Format in all cases: functional, cell-based
HepG2 [1] = test: Induction of autophagy in human HepG2 cells transfected with HBx assessed as decrease in HBx protein level upto 10 uM and measured after 6 hrs by western blot analysis; settings: DDE = dose-dependent effect
HepG2 [2] = test: Induction of autophagy in human HepG2 cells transfected with HCV sub-replicon assessed as decrease in HCV-NS5B protein level upto 10 uM and measured after 6 hrs by western blot analysis; settings: DDE = dose-dependent effect
HepG2 [3] = test: Induction of autophagy in human HepG2 cells assessed as increase in IL28A protein level upto 10 uM and measured after 6 hrs by western blot analysis; settings: DDE = dose-dependent effect
HepG2 [4] = test: Effect on ZIKV-NS5 degradation in human HepG2 cells transfected with ZIKV-NS5 at 10 uM pretreated with proteosome inhibitor MG132 for 12 hrs followed by compound addition and measured after 24 hrs by western blot analysis
HepG2 [5] = test: Induction of autophagy in human HepG2 cells transfected with HCV subgenomic replicon assessed as HCV-NS5B/P62 combination at 10 uM incubated for 24 hrs in presence of anti-LC3B antibodies by co-immunoprecipitation assay
HepG2 [6] = test: Downregulation of HCV-CORE in human HepG2 cells co-transfected with HCV-subreplicon and ATG10-misMO upto 10 uM incubated for 24 hrs by western blot analysis
HepG2 [7] = test: Downregulation of HBVx in human HepG2 cells transfected with HBVx upto 10 uM incubated for 24 hrs by western blot analysis
HepG2 [8] = test: Upregulation of endogenous ATG10S activated co-localisation of HIV-RT with LC3B in human HepG2 cells co-transfected with HIV-RT and ATG10-sMO by cellular immunofluorescence assay
HepG2 [9] = test: Upregulation of endogenous ATG10S activated co-localisation of HIV-RT with LAMP2 in human HepG2 cells co-transfected with HIV-RT and ATG10-sMO by cellular immunofluorescence assay
HepG2 [10] = test: Induction of autophagy in human HepG2 cells co-transfected with ATG10 or ATG10S assessed as increase in ATG10/ATG10S protein level upto 10 uM and measured after 6 hrs by western blot analysis; settings: DDE = dose-dependent effect
HepG2 [11] = test: Induction of autophagy in human HepG2 cells transfected with HBx assessed as increase in HBx-LC3B interaction level at 10 uM incubated for 24 hrs in presence of anti-Flag antibodies by co-immunoprecipitation assay
HepG2 [12] = test: Induction of autophagy in human HepG2 cells transfected with HBx assessed as increase in HBx-LAMP2 interaction level at 10 uM incubated for 24 hrs in presence of anti-Flag antibodies by co-immunoprecipitation assay
HepG2 [13] = test: Induction of autophagy in human HepG2 cells transfected with ZIKV-NS5 assessed as increase in ZIKV-NS5-LAMP2 interaction level at 10 uM incubated for 24 hrs in presence of anti-Flag antibodies by co-immunoprecipitation assay
HepG2 [14] = test: Upregulation of ATG10/ATG10S mRNA level in human HepG2 cells transfected with ZIKV-NS5 upto 10 uM by RT-PCR analysis; settings: DDE = dose-dependent effect
HepG2 [15] = test: Upregulation of endogenous ATG10S activated co-localisation of HCV-NS5B with LAMP2 in human HepG2 cells co-transfected with HCV sub-replicon and ATG10-misMO by cellular immunofluorescence assay
HepG2 [16] = test: Upregulation of HCV-NS5B in human HepG2 cells transfected with HCV sub-replicon and gene knockdown by IL28A morpholinos at 10 uM incubated for 24 hrs by western blot analysis
HepG2 [17] = test: Upregulation of HCV-CORE in human HepG2 cells transfected with HCV sub-replicon and gene knockdown by IL28A morpholinos at 10 uM incubated for 24 hrs by western blot analysis
HepG2 [18] = test: Upregulation of LC3B in human HepG2 cells transfected with HBx and gene knockdown by IL28A morpholinos at 10 uM incubated for 24 hrs by western blot analysis
HepG2 [19] = test: Upregulation of P62 in human HepG2 cells transfected with HBx and gene knockdown by IL28A morpholinos at 10 uM incubated for 24 hrs by western blot analysis
HepG2 [20] = test: Upregulation of HBx in human HepG2 cells transfected with HBx and gene knockdown by IL28A morpholinos at 10 uM incubated for 24 hrs by western blot analysis
HepG2 [21] = test: Induction of autophagy in human HepG2 cells transfected with HCV subgenomic replicon and gene knockdown by IL28A morpholinos assessed as LC3B and LAMP2 interaction at 10 uM incubated for 24 hrs in presence of anti-LC3B antibodies by co-immunoprecipitation assay

Measured: Activity

CC[C@@H](O)c1nc(C)cc2c1C(=O)c1cc(=O)c3c(c(O)c1-2)O[C@@H]1O[C@H](C)[C@@H](OC)[C@@H](O)[C@]31O
active: HepG2 [1] Dde | HepG2 [2] Dde | HepG2 [3] Dde | HepG2 [4] | HepG2 [5] | HepG2 [6] | HepG2 [7] | HepG2 [8] | HepG2 [9] | HepG2 [10] Dde | HepG2 [11] | HepG2 [12] | HepG2 [13] | HepG2 [14] Dde | HepG2 [15] | HepG2 [16] | HepG2 [17] | HepG2 [18] | HepG2 [19] | HepG2 [20] | HepG2 [21]
